US6562871B1, “Dry granulation of pharmaceutical formulation comprising mexiletine” (Boehringer Ingelheim Pharmaceuticals, Inc., priority 2000, dated 2003)
Where two headings read alike, the source gives them in different places.

Assays:
[1] = Compressional force profiles; type: physicochemical; settings: slugs on hydraulic press, FIG. 1 and FIG. 2
Excerpt: Compressional force profiles were generated on a calibrated Carver press using 12 mm standard cup punches and matching die. The punches and die were dusted with magnesium stearate to facilitate the release of the slug from the die. Five hundred milligram aliquots of drug substance were weighed and individually loaded into the die for compression. Slugs were compressed at 1000, 2000, 3000, 4000, 5000, 6000, 7000 and 8000 pounds gauge force (unless otherwise noted). Gauge force readings were corrected based on the calibration for that gauge and press. The compressed slugs for each representative force were weighed on a four place balance and measured for thickness. Pressure, volume and density were calculated using slug (tablet) geometry and area.

[2] = Protocol: Particle size and distribution was determined by suspending a sample of powder in mineral oil on a hemacytometer and counting particles in the size ranges: 1-5, 5-10, 10-25, 25-50, 50-100, 100-200, >200 μm using a polarizing light microscope. At least 200 particles were counted.
Maximum and minimum particle sizes were determined with a large sampling using a low power, stereo microscope. The sample was suspended in a well slide filled with mineral oil. Measurements of the largest and smallest particles were made with a calibrated reticule.

Pour and tap density = type: physicochemical; settings: average of two measurements
Protocol: Pour and tap density were tested using a Van Kel dual tapper and a 100 mL fluted graduate. The tare weight of the graduate was determined. It was then filled by pouring the powder into the graduate to approximately 70 mL. The net weight was next determined and a pour density calculated by dividing the net weight by the observed volume. Tap density was determined by allowing the graduate to tap 1000 times and reading the new volume. Tap density was calculated by dividing the net weight by the new “tap” volume. Both measurements were expressed in grams/mL. Results were reported as the average of two measurements.

[3] = Flow studies (funnel flow rate, angle of repose); type: physicochemical
Protocol: The flow studies were performed using a ring stand and funnel set-up, such that the funnel was perpendicular to the table flat surface and the tip of the funnel was 6 inches from the table flat surface. The funnel was plastic with the following dimensions: upper diameter, 150 mm, lower diameter 24 mm, and overall length 135 mm. To the upper, wider diameter of the funnel a vibrator was placed touching the outer perimeter. The vibrator was set on its dial such that the indicator was in the 3 o'clock position. Fifty grams of material was placed into the funnel while holding a piece of cardboard under it. The vibrator was started, and the cardboard was removed while simultaneously starting a timer. The time for the fifty grams to pass through a funnel was recorded. The angle of repose, the maximum angle that can be obtained between the free standing surface of a powder heap and the horizontal plane, was calculated according to: […]
Where h is the height of the powder heap and D is the diameter of the base of the powder heap. Tests were performed in duplicate.

Structure (SMILES): Cc1cccc(C)c1OCC(C)N (centres unmarked) [Mexiletine Drug Substance, 1-(2,6-dimethyl-phenoxy)-2-propanamine]
- Compressibility (density vs pressure) ([1]; listed as drug substance): very compressible
- Compressibility (density vs pressure) ([1]; listed as mexiletine drug substance): very good compressional characteristics
- Particle Size Distribution, % by number ([2]; size range 1-5 μm): 32.0%
- Particle Size Distribution, % by number ([2]; size range 5-10 μm): 23.3%
- Particle Size Distribution, % by number ([2]; size range 10-25 μm): 37.9%
- Particle Size Distribution, % by number ([2]; size range 25-50 μm): 6.6%
- Particle Size Distribution, % by number ([2]; size range 50-100 μm): 0.2%
- Particle Size Distribution, % by number ([2]; size range 100-200 μm): 0.0%
- Particle Size Distribution, % by number ([2]; size range >200 μm): 0.0%
- Size of larger particles ([2]; well slide technique, larger sample sizes, very few): 150 μm
- Tap Density (Pour and tap density; 1000 taps): 0.35 g/mL
- Bulk Density (Pour and tap density; pour density): 0.22 g/mL
- Angle of Repose [3]: 62 °
- Flow Rate ([3]; 50 g through funnel, vibrator assisted): 2.1 g/s
